Each compound was assayed against CCR2 (Homo sapiens (Human), UniProt P41597) (assay: Calcium activity assayed on the FLIPR Tetra in HEK-Gqi5 cells stably expressing CCR2). Conditions: FLIPR Tetra calcium assay.
Sequence of CCR2 (P41597 whole entry, species assumed): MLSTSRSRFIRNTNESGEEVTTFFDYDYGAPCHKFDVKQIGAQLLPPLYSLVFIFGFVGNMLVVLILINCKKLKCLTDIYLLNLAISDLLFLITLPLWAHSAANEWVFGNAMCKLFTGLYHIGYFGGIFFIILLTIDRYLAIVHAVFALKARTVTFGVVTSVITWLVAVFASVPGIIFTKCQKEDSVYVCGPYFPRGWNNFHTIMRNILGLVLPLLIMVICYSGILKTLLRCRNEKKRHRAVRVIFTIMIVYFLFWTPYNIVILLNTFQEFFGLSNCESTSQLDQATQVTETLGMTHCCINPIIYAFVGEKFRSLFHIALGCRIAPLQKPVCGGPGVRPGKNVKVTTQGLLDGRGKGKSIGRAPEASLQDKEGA
Type: cell-based
In the case of O=S(=O)(Nc1cc(Cl)ccc1[S+]([O-])Cc1cccnc1)c1ccc(Cl)c(C(F)(F)F)c1 (stereo not shown) [4-chloro-N-{5-chloro-2-[(pyridin-3-ylmethyl)sulfinyl]phenyl}-3-(trifluoromethyl)benzenesulfonamide], the “CCR2 % ANTAGONISM” value is reported as 97% and the IC50 is reported as 112 nM.
In the case of O=S(=O)(Nc1cc(Cl)ccc1SCc1cccnc1)c1ccc(Cl)c(C(F)(F)F)c1 [4-chloro-N-{5-chloro-2-[(pyridin-3-ylmethyl)thio]phenyl}-3-(trifluoromethyl)benzenesulfonamide], the “CCR2 % ANTAGONISM” value is reported as 85% and the IC50 is reported as 94 nM.
With C[S+]([O-])c1ccc(Cl)cc1NS(=O)(=O)c1cc2cc(Cl)ccc2o1 (stereo not shown) [5-chloro-N-[5-chloro-2-(methylsulfinyl)phenyl]-1-benzofuran-2-sulfonamide] the “CCR2 % ANTAGONISM” value was 92% and the IC50 was 655 nM.
With CS(=O)(=O)c1ccc(Cl)cc1NS(=O)(=O)c1cc2cc(Cl)ccc2o1 [5-chloro-N-[5-chloro-2-(methylsulfonyl)phenyl]-1-benzofuran-2-sulfonamide] the “CCR2 % ANTAGONISM” value was 74% and the IC50 was 2050 nM.
CC(=O)Nc1nc(C[S+]([O-])c2ccc(Cl)cc2NS(=O)(=O)c2cc3ccccc3o2)cs1 (stereo not shown) [Compound 236, N-{-4-[({2-[(1-benzofuran-2-ylsulfonyl)amino]-4-chlorophenyl}sulfinyl)methyl]-1,3-thiazol-2-yl}acetamide] was tested, and the “CCR2 % ANTAGONISM” value was 79% and the IC50 was 2680 nM.
With CC(=O)Nc1nc(CS(=O)(=O)c2ccc(Cl)cc2NS(=O)(=O)c2cc3ccccc3o2)cs1 [Compound 237, N-{-4-[({2-[(1-benzofuran-2-ylsulfonyl)amino]-4-chlorophenyl}sulfonyl)methyl]-1,3-thiazol-2-yl}acetamide] the “CCR2 % ANTAGONISM” value was 87%.
CC(=O)NCC[S+]([O-])c1ccc(Cl)cc1NS(=O)(=O)c1ccc(Cl)c(C(F)(F)F)c1 (stereo not shown) [N-(2-{[4-chloro-2-({[4-chloro-3-(trifluoromethyl)phenyl]sulfonyl}amino)phenyl]sulfinyl}ethyl)acetamide] was tested, and the “CCR2 % ANTAGONISM” value was 97%.
CC(=O)NCCS(=O)(=O)c1ccc(Cl)cc1NS(=O)(=O)c1ccc(Cl)c(C(F)(F)F)c1 [N-(2-{[4-chloro-2-({[4-chloro-3-(trifluoromethyl)phenyl]sulfonyl}amino)phenyl]sulfonyl}ethyl)acetamide] was tested, and the “CCR2 % ANTAGONISM” value was 98% and the IC50 was 5190 nM.
With Nc1nc(C[S+]([O-])c2ccc(Cl)cc2NS(=O)(=O)c2cc3ccccc3o2)cs1 (stereo not shown) [N-(2-{[(2-amino-1,3-thiazol-4-yl)methyl]sulfinyl}-5-chlorophenyl)-1-benzofuran-2-sulfonamide] the “CCR2 % ANTAGONISM” value was 100% and the IC50 was 262 nM.
With Nc1nc(CS(=O)(=O)c2ccc(Cl)cc2NS(=O)(=O)c2cc3ccccc3o2)cs1 [N-(2-{[(2-amino-1,3-thiazol-4-yl)methyl]sulfonyl}-5-chlorophenyl)-1-benzofuran-2-sulfonamide] the “CCR2 % ANTAGONISM” value was 102% and the IC50 was 83 nM.
With Nc1nc(CSc2ccc(Cl)cc2NS(=O)(=O)c2cc3ccccc3o2)cs1 [N-(2-{[(2-amino-1,3-thiazol-4-yl)methyl]thio}-5-chlorophenyl)-1-benzofuran-2-sulfonamide] the “CCR2 % ANTAGONISM” value was 102% and the IC50 was 42 nM.
With Nc1cc(CS(=O)(=O)c2ccc(Cl)cc2NS(=O)(=O)c2cc3ccccc3o2)cc[n+]1[O-] [N-(2-{[(2-amino-1-oxidopyridin-4-yl)methyl]sulfonyl}-5-chlorophenyl)-1-benzofuran-2-sulfonamide] the “CCR2 % ANTAGONISM” value was 54% and the IC50 was 9960 nM.
For Nc1cc(C[S+]([O-])c2ccc(Cl)cc2NS(=O)(=O)c2cc3ccccc3o2)ccn1 (stereo not shown) [N-(2-{[(2-aminopyridin-4-yl)methyl]sulfinyl}-5-chlorophenyl)-1-benzofuran-2-sulfonamide], the “CCR2 % ANTAGONISM” value was 101% and the IC50 was 865 nM.
With Nc1cc(CS(=O)(=O)c2ccc(Cl)cc2NS(=O)(=O)c2cc3ccccc3o2)ccn1 [N-(2-{[(2-aminopyridin-4-yl)methyl]sulfonyl}-5-chlorophenyl)-1-benzofuran-2-sulfonamide] the “CCR2 % ANTAGONISM” value was 101% and the IC50 was 364 nM.
In the case of Nc1cc(CSc2ccc(Cl)cc2NS(=O)(=O)c2cc3ccccc3o2)ccn1 [N-(2-{[(2-aminopyridin-4-yl)methyl]thio}-5-chlorophenyl)-1-benzofuran-2-sulfonamide], the “CCR2 % ANTAGONISM” value is reported as 100% and the IC50 is reported as 80 nM.
With Nc1cc(C[S+]([O-])c2ccc(Cl)cc2NS(=O)(=O)c2cc3ccccc3o2)n[nH]1 (stereo not shown) [N-(2-{[(5-amino-1H-pyrazol-3-yl)methyl]sulfinyl}-5-chlorophenyl)-1-benzofuran-2-sulfonamide] the “CCR2 % ANTAGONISM” value was 99% and the IC50 was 1380 nM.
Nc1cc(CS(=O)(=O)c2ccc(Cl)cc2NS(=O)(=O)c2cc3ccccc3o2)n[nH]1 [N-(2-{[(5-amino-1H-pyrazol-3-yl)methyl]sulfonyl}-5-chlorophenyl)-1-benzofuran-2-sulfonamide] was tested, and the “CCR2 % ANTAGONISM” value was 98% and the IC50 was 1870 nM.
For Nc1cc(CSc2ccc(Cl)cc2NS(=O)(=O)c2cc3ccccc3o2)n[nH]1 [N-(2-{[(5-amino-1H-pyrazol-3-yl)methyl]thio}-5-chlorophenyl)-1-benzofuran-2-sulfonamide], the “CCR2 % ANTAGONISM” value was 105% and the IC50 was 25 nM.
In the case of Nc1nnc(C[S+]([O-])c2ccc(Cl)cc2NS(=O)(=O)c2cc3ccccc3o2)[nH]1 (stereo not shown) [N-(2-{[(5-amino-4H-1,2,4-triazol-3-yl)methyl]sulfinyl}-5-chlorophenyl)-1-benzofuran-2-sulfonamide], the “CCR2 % ANTAGONISM” value is reported as 48%.
With Nc1nnc(CSc2ccc(Cl)cc2NS(=O)(=O)c2cc3ccccc3o2)[nH]1 [N-(2-{[(5-amino-4H-1,2,4-triazol-3-yl)methyl]thio}-5-chlorophenyl)-1-benzofuran-2-sulfonamide] the “CCR2 % ANTAGONISM” value was 103% and the IC50 was 32 nM.
With Nc1cccc(CS(=O)(=O)c2ccc(Cl)cc2NS(=O)(=O)c2cc3ccccc3o2)[n+]1[O-] [N-(2-{[(6-amino-1-oxidopyridin-2-yl)methyl]sulfonyl}-5-chlorophenyl)-1-benzofuran-2-sulfonamide] the “CCR2 % ANTAGONISM” value was 95% and the IC50 was 264 nM.
For Nc1cccc(C[S+]([O-])c2ccc(Cl)cc2NS(=O)(=O)c2cc3ccccc3o2)n1 (stereo not shown) [N-(2-{[(6-aminopyridin-2-yl)methyl]sulfinyl}-5-chlorophenyl)-1-benzofuran-2-sulfonamide], the “CCR2 % ANTAGONISM” value was 99% and the IC50 was 28 nM.
In the case of Nc1cccc(CS(=O)(=O)c2ccc(Cl)cc2NS(=O)(=O)c2cc3ccccc3o2)n1 [N-(2-{[(6-aminopyridin-2-yl)methyl]sulfonyl}-5-chlorophenyl)-1-benzofuran-2-sulfonamide], the “CCR2 % ANTAGONISM” value is reported as 102% and the IC50 is reported as 15 nM.
Nc1cccc(CSc2ccc(Cl)cc2NS(=O)(=O)c2cc3ccccc3o2)n1 [N-(2-{[(6-aminopyridin-2-yl)methyl]thio}-5-chlorophenyl)-1-benzofuran-2-sulfonamide] was tested, and the “CCR2 % ANTAGONISM” value was 94% and the IC50 was 32 nM.
For O=S(=O)(Nc1cc(Cl)ccc1[S+]([O-])CCc1cn[nH]c1)c1cc2ccccc2o1 (stereo not shown) [N-(5-chloro-2-{[2-(1H-pyrazol-4-yl)ethyl]sulfinyl}phenyl)-1-benzofuran-2-sulfonamide], the “CCR2 % ANTAGONISM” value was 67% and the IC50 was 1060 nM.
For O=S(=O)(CCc1cn[nH]c1)c1ccc(Cl)cc1NS(=O)(=O)c1cc2ccccc2o1 [N-(5-chloro-2-{[2-(1H-pyrazol-4-yl)ethyl]sulfonyl}phenyl)-1-benzofuran-2-sulfonamide], the “CCR2 % ANTAGONISM” value was 93% and the IC50 was 570 nM.

— US9663460B2, “Sulfur derivatives as chemokine receptor modulators” (ALLERGAN, INC., priority 2010, dated 2017)
